Experimental findings from BindingDB's records for doi:10.1021/acs.jmedchem.2c01601 (Sapienza University of Rome, 2023) are described below.

Structures are written as SMILES.

In assay [1] the target is METTL3/METTL14 (Homo sapiens). Put plainly: Inhibition of full-length His-tagged METTL3/full length FLAG-tagged METTL14 (unknown origin) expressed in baculovirus expression system using synthetic RNA 5'P-uacacucgaucuggacuaaagcugcuc-3' and SAM as substrate preincubated for 10 mins followed by substrate addition and measured after 60 mins by RF/MS analysis.
Assay [2] deals with N6-adenosine-methyltransferase catalytic/non-catalytic subunit (Homo sapiens, UniProt Q9HCE5+Q86U44). Put plainly: Inhibition of full-length His-tagged METTL3/full length FLAG-tagged METTL14 (unknown origin) expressed in baculovirus expression system using synthetic RNA 5'P-uacacucgaucuggacuaaagcugcuc-3' and SAM as substrate preincubated for 10 mins followed by substrate addition and measured after 60 mins by RF/MS analysis.
Chain of N6-adenosine-methyltransferase catalytic/non-catalytic subunit (Q9HCE5 whole entry): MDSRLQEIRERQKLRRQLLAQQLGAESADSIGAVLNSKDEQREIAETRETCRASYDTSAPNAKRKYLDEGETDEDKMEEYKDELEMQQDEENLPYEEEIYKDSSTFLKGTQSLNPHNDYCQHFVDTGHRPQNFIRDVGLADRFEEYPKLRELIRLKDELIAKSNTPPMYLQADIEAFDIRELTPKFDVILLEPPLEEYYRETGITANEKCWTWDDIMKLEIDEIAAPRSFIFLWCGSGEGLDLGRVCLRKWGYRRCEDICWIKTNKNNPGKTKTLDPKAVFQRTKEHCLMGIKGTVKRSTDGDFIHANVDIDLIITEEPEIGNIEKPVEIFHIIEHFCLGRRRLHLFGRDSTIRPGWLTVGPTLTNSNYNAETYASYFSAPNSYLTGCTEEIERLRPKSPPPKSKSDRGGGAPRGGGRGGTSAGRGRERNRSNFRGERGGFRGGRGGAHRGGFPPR
Chain of N6-adenosine-methyltransferase catalytic/non-catalytic subunit (Q86U44 whole entry): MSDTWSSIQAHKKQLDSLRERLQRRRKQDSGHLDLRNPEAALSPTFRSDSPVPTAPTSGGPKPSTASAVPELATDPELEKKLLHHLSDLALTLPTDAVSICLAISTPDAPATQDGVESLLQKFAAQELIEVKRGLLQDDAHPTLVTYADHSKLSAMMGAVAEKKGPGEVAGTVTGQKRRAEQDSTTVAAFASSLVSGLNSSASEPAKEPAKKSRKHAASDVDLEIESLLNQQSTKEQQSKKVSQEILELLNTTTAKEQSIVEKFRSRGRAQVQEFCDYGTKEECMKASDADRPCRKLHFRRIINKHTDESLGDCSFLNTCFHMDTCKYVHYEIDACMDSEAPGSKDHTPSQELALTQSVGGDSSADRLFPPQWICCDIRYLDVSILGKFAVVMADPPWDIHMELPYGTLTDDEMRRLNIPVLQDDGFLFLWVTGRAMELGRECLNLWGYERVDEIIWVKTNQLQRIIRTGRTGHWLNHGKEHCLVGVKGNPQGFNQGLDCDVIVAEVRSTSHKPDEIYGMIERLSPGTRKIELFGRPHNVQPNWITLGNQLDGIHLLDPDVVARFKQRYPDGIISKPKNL

In assay [3] the target is METTL3/METTL14 complex (Homo sapiens). The assay is described as follows: Competive inhibition of full length human METTL3/METTL14 expressed in Sf9 cells using single strand RNA 5'-AAGAACCGGACUAAGCU-3' and SAM as substrate incubated for 40 mins by HTRF assay. In general terms: In TR-FRET formats the signal depends on donor and acceptor labels being close together.
For the next assay, the target named is METTL3/METTL14 complex. Put plainly: Inhibition of METTL3/METTL14 (unknown origin).

The term IC50 denotes the point on the concentration scale where inhibition reaches its midpoint. Low values mean higher potency, high ones lower potency. In assay [1], `COc1cc(-c2cn(Cc3cn4cc(CNCC56CC(C5)C6)ccc4n3)nn2)c2cncn2c1` [({bicyclo[1.1.1]pentan-1-yl}methyl)({2-[(4-{6-methoxyimidazo[1,5-a]pyridin-8-yl}-1H-1,2,3-triazol-1-yl)methyl]imidazo [1,2-a]pyridin-6-yl}methyl)amine] registered an IC50 of 6.1 nM. This lies in the single-digit nanomolar range. Regarding `O=C(NCc1cn2cc(CNCC34CC(F)(C3)C4)ccc2n1)c1cc(=O)n2ccccc2n1`, in assay [1], the half-inhibitory concentration (IC50) amounted to 6.1 nM. As for `COc1cc(-c2cn(Cc3cn4cc(CNCC5(OC)CCC5)ccc4n3)nn2)c2cn[nH]c2c1`, the IC50 in assay [2] amounted to 6.1 nM. The same measure, in the same setting: the same measure for `Nc1ncnc2c1c(Br)cn2[C@@H]1C[C@H](c2ccc3cc(CN4CCC5(CCC5)C4)[nH]c3c2)[C@@H](O)[C@H]1O` [(1R,2S,3R,5R)-3-{4-amino-5-bromo-7H-pyrrolo[2,3-d]pyrimidin-7-yl}-5-[2-({6-azaspiro[3.4]octan-]: 6.1 nM. On the same count and under the same terms, the result for `Nc1ncnc2c1c(Cl)cn2[C@@H]1C[C@H](c2ccc3cc(CNCC45CC(F)(C4)C5)[nH]c3c2)[C@@H](O)[C@H]1O` [(1R,2S,3R,5R)-3-{4-amino-5-chloro-7H-pyrrolo[2,3-d]pyrimidin-7-yl}-5-(2-{[({3-fluorobicyclo[1.1.1]pentan-1-] reads 6.1 nM.

Compound `Nc1ncnc2c1ccn2[C@@H]1C[C@H](c2ccc3cc(CN4CCC5(CCC5)C4)[nH]c3c2)[C@@H](O)[C@H]1O` [(1R,2S,3R,5R)-3-{4-amino-7H-pyrrolo[2,3-d]pyrimidin-7-yl}-5-[2-({6-azaspiro[3.4]octan-] yielded an IC50 in assay [2] of 6.2 nM. In assay [2], `COc1ccc2[nH]ncc2c1-c1cn(Cc2cn3cc(CNCC4CCC4)ccc3n2)nn1` returned an IC50 of 6.1 nM. In the case of `CNC1CCC(O)(Cn2cnc3c(N)ncnc32)C(O)C1` (stereo not drawn), in assay [3], the IC50 was determined as 98000 nM. In the case of `COc1cc(-c2cn(Cc3cn4cc(CNCC5CCC5)ccc4n3)nn2)c2cncn2c1` [US20230391770, Example 22], half-maximal inhibition in assay [1] (IC50) was put at 6.1 nM. Turning to `CC1=NN(c2ccc(C)c(C)c2)C(=O)/C1=N\Nc1cccc(-c2cccc(C(=O)O)c2)c1`, the IC50 on METTL3/METTL14 complex turned out to be 15300 nM. Consider `CN1CCC(NC(=O)[C@H]2O[C@@H](n3cnc4c(N)ncnc43)[C@H](O)[C@@H]2O)CC1`, for which the IC50 in assay [3] turned out to be 65000 nM. For the compound `COc1cc(-c2cn(Cc3cn4cc(CNCC56CC(F)(C5)C6)ccc4n3)nn2)c2cncn2c1` [({3-fluorobicyclo[1.1.1]pentan-1-yl}methyl)({2-[(4-{6-methoxyimidazo[1,5-a]pyridin-8-yl}-1H-1,2,3-triazol-1-yl)methyl]imidazo [1,2-a]pyridin-6-yl}methyl)amine], 6.1 nM corresponded to half-maximal inhibition in assay [1] (IC50). Regarding `CC1(C)CCN(Cc2ccc3nc(Cn4cc(-c5cc(Br)cc6[nH]ncc56)nn4)cn3c2)CC1`, 7.9 nM corresponded to half-maximal inhibition in assay [2] (IC50).
